In patent US9388139B2, “Derivatives of celeboxib, use thereof and preparation thereof” (German University, priority 2011, dated 2016):
Read-outs that look alike come from different tables or passages of the source.

Experiments:
COX1 = COX1 (Ovis aries (Sheep), UniProt P05979); test: COX-1 activity, colorimetric assay; type: biochemical, ovine; conditions: screening dose 100 μM; read-out: IC50 μM against COX1
Method: (§1) Compounds according to the present disclosure were tested for their in vitro ability to inhibit recombinant human PDE5, COX1 and COX2 enzymes at screening doses of 50, 100 and 100 μM respectively.
(§2) COX-1 and COX-2 activities were measured using purified ovine COX-1 and COX-2 with colorimetric assay kits obtained from Cayman Chemical Co. (Ann Arbor, Mich.). The activities of COX-1 and COX-2 were measured after the addition of arachidonic acid and incubation at 25° C. for 5 min by absorbance at 590 nm as specified by the manufacturer.

COX2 = COX2 (Ovis aries (Sheep), UniProt P79208); test: COX-2 activity, colorimetric assay; type: biochemical, ovine; conditions: screening dose 100 μM; read-out: IC50 μM against COX2
Method: as §1, §2

[1] = tested on: human colorectal HT-29 tumor cell line; test: Tumor cell growth assay (Cell Titer Glo); type: cell-based; conditions: read-out: IC50 μM against HT-29
[2] = tested on: human breast MDA-MB-231 tumor cell line; test: Tumor cell growth assay (Cell Titer Glo); type: cell-based; conditions: read-out: IC50 μM against MDA-MB-231
recombinant human PDE5 = recombinant human PDE5 (Homo sapiens (Human), UniProt O76074); test: PDE5 inhibition, IMAP fluorescence polarization assay; type: biochemical; conditions: read-out: IC50 μM against PDE5
Method: as §1
PDE activity was measured using the IMAP fluorescence polarization assay (Molecular Devices) in which binding of hydrolyzed cyclic nucleotide substrate to immobilized metal coordination complexes increases fluorescence polarization (FP). Tetramethylrhodamine (TAMRA)-cGMP and fluorescein-cAMP were used as substrates, each at final concentration of 50 nmol/L. The PDE assay was done according to the manufacturer's specifications using either whole cell lysates or recombinant enzymes.

[3] = recombinant human PDE5, IC50 determined if inhibition >50% at 50 μM screening dose

Chain of COX1 (P05979 25-600): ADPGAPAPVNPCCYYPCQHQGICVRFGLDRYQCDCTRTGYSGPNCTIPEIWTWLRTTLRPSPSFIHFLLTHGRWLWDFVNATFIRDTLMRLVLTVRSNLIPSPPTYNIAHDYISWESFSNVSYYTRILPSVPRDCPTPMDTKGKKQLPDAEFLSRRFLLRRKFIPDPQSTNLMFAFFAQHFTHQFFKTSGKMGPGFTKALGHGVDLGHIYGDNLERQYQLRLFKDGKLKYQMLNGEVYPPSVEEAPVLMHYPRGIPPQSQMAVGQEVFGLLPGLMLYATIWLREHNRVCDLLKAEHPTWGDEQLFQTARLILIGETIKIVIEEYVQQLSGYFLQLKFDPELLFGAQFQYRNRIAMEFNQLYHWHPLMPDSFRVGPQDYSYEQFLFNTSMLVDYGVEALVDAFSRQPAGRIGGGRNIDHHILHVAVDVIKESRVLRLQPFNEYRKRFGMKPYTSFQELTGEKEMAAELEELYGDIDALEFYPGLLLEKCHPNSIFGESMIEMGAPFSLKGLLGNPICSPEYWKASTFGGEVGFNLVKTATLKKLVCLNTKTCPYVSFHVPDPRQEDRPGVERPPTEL
Chain of COX2 (P79208 17-603): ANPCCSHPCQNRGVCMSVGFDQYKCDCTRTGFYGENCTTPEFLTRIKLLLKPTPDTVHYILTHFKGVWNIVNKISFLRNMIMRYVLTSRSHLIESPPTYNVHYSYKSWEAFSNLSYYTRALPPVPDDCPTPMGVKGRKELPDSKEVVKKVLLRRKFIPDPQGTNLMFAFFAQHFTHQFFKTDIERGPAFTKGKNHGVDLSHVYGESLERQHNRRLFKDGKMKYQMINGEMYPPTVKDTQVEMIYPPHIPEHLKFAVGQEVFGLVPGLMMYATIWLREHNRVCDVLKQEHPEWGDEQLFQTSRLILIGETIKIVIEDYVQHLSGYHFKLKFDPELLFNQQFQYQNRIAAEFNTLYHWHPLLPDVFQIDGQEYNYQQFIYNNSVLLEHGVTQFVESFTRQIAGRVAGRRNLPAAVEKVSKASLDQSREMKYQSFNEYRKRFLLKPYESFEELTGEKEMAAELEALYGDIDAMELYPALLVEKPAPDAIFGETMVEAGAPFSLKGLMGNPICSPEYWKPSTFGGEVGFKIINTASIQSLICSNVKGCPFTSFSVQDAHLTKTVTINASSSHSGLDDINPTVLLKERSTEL

Row | Compound | IC50 (COX1) | IC50 (COX2) | IC50 ([1]; HT-29, 72 hours) | IC50 ([2]; MDA-MB-231, 72 hours) | IC50 (recombinant human PDE5; [3]) | IC50 ([1]; 72 hours) | IC50 ([2]; 72 hours) | IC50 (recombinant human PDE5)
1 | COc1ccc(C2CC(C(C)(C)C)=NN2c2ccc(C(=O)O)cc2)cc1 (stereo not shown) [Compound 1, 4-(3-tert-Butyl-5-(4-methoxyphenyl)-4,5-dihydro-1H-pyrazol-1-yl)benzoic acid] | > 100 µM | > 100 µM | > 50 µM | > 50 µM | 2.02 µM | – | – | –
2 | CC(C)(C)C1=NN(c2ccc(C(=O)O)cc2)C(c2ccc([N+](=O)[O-])cc2)C1 (stereo not shown) [Compound 2, 4-(3-tert-Butyl-5-(4-nitrophenyl)-4,5-dihydro-1H-pyrazol-1-yl)benzoic acid] | > 100 µM | > 100 µM | > 50 µM | > 50 µM | 5.7 µM | – | – | –
3 | CC(C)(C)C1=NN(c2ccc(C(=O)O)cc2)C(c2cccc([N+](=O)[O-])c2)C1 (stereo not shown) [Compound 3, 4-(3-tert-Butyl-5-(3-nitrophenyl)-4,5-dihydro-1H-pyrazol-1-yl)benzoic acid] | > 100 µM | > 100 µM | – | – | 3.2 µM | > 50 µM | > 50 µM | –
4 | COc1ccc(C2CC(C(C)(C)C)=NN2c2ccc(C(=O)O)cc2)c(OC)c1 (stereo not shown) [Compound 4, 4-(3-tert-Butyl-5-(2,4-dimethoxyphenyl)-4,5-dihydro-1H-pyrazol-1-yl)benzoic acid] | > 100 µM | > 100 µM | > 50 µM | > 50 µM | – | – | – | 23.5 µM
5 | CC(C)(C)C1=NN(c2ccc(C(=O)O)cc2)C(c2ccc(O)cc2)C1 (stereo not shown) [Compound 5, 4-(3-tert-Butyl-5-(4-hydroxyphenyl)-4,5-dihydro-1H-pyrazol-1-yl)benzoic acid] | > 100 µM | > 100 µM | > 50 µM | > 50 µM | 2.1 µM | – | – | –
6 | CC(C)(C)C1=NN(c2cccc(C(=O)O)c2)C(c2ccc(Cl)cc2)C1 (stereo not shown) [Compound 6, 3-(3-tert-Butyl-5-(4-chlorophenyl)-4,5-dihydro-4H-pyrazol-1-yl)benzoic acid] | > 100 µM | > 100 µM | 39.9 µM | > 50 µM | 9.9 µM | – | – | –
7 | COc1ccc(C2CC(c3ccccc3)=NN2c2ccc(C(=O)O)cc2)cc1 (stereo not shown) [Compound 7, 4-(5-(4-Methoxyphenyl)-3-phenyl-4,5-dihydro-1H-pyrazol-1-yl)benzoic acid] | > 100 µM | > 100 µM | 36.7 µM | 48 µM | 1.2 µM | – | – | –
8 | COc1ccc(C2CC(c3ccccc3OC)=NN2c2ccc(C(=O)O)cc2)cc1 (stereo not shown) [Compound 8, 4-(3-(2-Methoxyphenyl)-5-(4-methoxyphenyl)-4,5-dihydro-1H-pyrazol-1-yl)benzoic acid] | > 100 µM | > 100 µM | > 50 µM | > 50 µM | 3.2 µM | – | – | –
9 | COc1ccc(C2CC(c3cccc(OC)c3)=NN2c2ccc(C(=O)O)cc2)cc1 (stereo not shown) [Compound 9, 4-(3-(3-Methoxyphenyl)-5-(4-methoxyphenyl)-4,5-dihydro-1H-pyrazol-1-yl)benzoic acid] | > 100 µM | > 100 µM | 25.9 µM | 45.6 µM | 1.8 µM | – | – | –
10 | COc1ccc(C2CC(c3ccc(OC)c(OC)c3)=NN2c2ccc(C(=O)O)cc2)cc1 (stereo not shown) [Compound 10, 4-(3-(3,4-Dimethoxyphenyl)-5-(4-methoxyphenyl)-4,5-dihydro-1H-pyrazol-1-yl)benzoic acid] | > 100 µM | > 100 µM | 42.5 µM | > 50 µM | 6.9 µM | – | – | –
11 | COc1ccc(C2CC(c3ccccc3)=NN2c2ccc(S(N)(=O)=O)cc2)cc1 (stereo not shown) [Compound 11, 4-(5-(4-Methoxyphenyl)-3-phenyl-4,5-dihydro-1H-pyrazol-1-yl)benzenesulfonamide] | > 100 µM | > 100 µM | 15.6 µM | 27.6 µM | 3.8 µM | – | – | –
12 | CC(C)(C)C1=NN(c2ccc(C(=O)O)cc2)C(c2ccc(Cl)c(Cl)c2)C1 (stereo not shown) [Compound 13, 4-(3-(tert-Butyl)-5-(3,4-dichlorophenyl)-4,5-dihydro-1H-pyrazol-1-yl)benzoic acid] | > 100 µM | > 100 µM | 25.7 µM | > 50 µM | 5.5 µM | – | – | –
13 | CC(C)(C)C1=NN(c2ccc(C(=O)O)cc2)C(c2ccccc2Br)C1 (stereo not shown) [Compound 14, 4-(5-(2-Bromophenyl)-3-(tert-butyl)-4,5-dihydro-1H-pyrazol-1-yl)benzoic acid] | > 100 µM | > 100 µM | 39.6 µM | > 50 µM | 6.9 µM | – | – | –
14 | CCOc1ccc(C2CC(C(C)(C)C)=NN2c2ccc(C(=O)O)cc2)cc1 (stereo not shown) [Compound 15, 4-(3-(tert-Butyl)-5-(4-ethoxyphenyl)-4,5-dihydro-1H-pyrazol-1-yl)benzoic acid] | > 100 µM | > 100 µM | 6 µM | > 50 µM | 2.9 µM | – | – | –
15 | CC(C)(C)C1=NN(c2ccc(C(=O)O)cc2)C(c2cccc(Br)c2)C1 (stereo not shown) [Compound 16, 4-(5-(3-Bromophenyl)-3-(tert-butyl)-4,5-dihydro-1H-pyrazol-1-yl)benzoic acid] | > 100 µM | > 100 µM | 8.8 µM | > 50 µM | 3.1 µM | – | – | –
16 | CC(C)(C)C1=NN(c2ccc(C(=O)O)cc2)C(c2ccccc2Cl)C1 (stereo not shown) [Compound 17, 4-(3-(tert-Butyl)-5-(2-chlorophenyl)-4,5-dihydro-1H-pyrazol-1-yl)benzoic acid] | > 100 µM | > 100 µM | 20.8 µM | > 50 µM | 1.9 µM | – | – | –
17 | CC(C)(C)C1=NN(c2ccc(C(=O)O)cc2)C(c2ccccc2F)C1 (stereo not shown) [Compound 18, 4-(3-(tert-Butyl)-5-(2-fluorophenyl)-4,5-dihydro-1H-pyrazol-1-yl)benzoic acid] | > 100 µM | > 100 µM | > 50 µM | > 50 µM | 3.3 µM | – | – | –
18 | CC(C)(C)C1=NN(c2ccc(C(=O)O)cc2)C(c2cccc(F)c2)C1 (stereo not shown) [Compound 19, 4-(3-(tert-Butyl)-5-(3-fluorophenyl)-4,5-dihydro-1H-pyrazol-1-yl)benzoic acid] | > 100 µM | > 100 µM | > 50 µM | > 50 µM | 2.7 µM | – | – | –
19 | CCOc1ccccc1C1CC(C(C)(C)C)=NN1c1ccc(C(=O)O)cc1 (stereo not shown) [Compound 20, 4-(3-(tert-Butyl)-5-(2-ethoxyphenyl)-4,5-dihydro-1H-pyrazol-1-yl)benzoic acid] | > 100 µM | > 100 µM | – | – | 2 µM | 22 µM | > 50 µM | –
20 | CC(C)(C)C1=NN(c2ccc(C(=O)O)cc2)C(c2ccc(Cl)cc2)C1 (stereo not shown) [Compound 21, 4-(3-tert-Butyl-5-(4-chlorophenyl)-4,5-dihydro-1H-pyrazol-1-yl)benzoic acid] | > 100 µM | > 100 µM | > 50 µM | > 50 µM | 8.7 µM | – | – | –
21 | CC(C)(C)C1=NN(c2ccc(C(=O)O)cc2)C(c2ccccc2)C1 (stereo not shown) [Compound 22, 4-(3-tert-Butyl-5-phenyl-4,5-dihydro-1H-pyrazol-1-yl)benzoic acid] | > 100 µM | > 100 µM | > 50 µM | > 50 µM | 6.22 µM | – | – | –
22 | Cc1ccc(C2CC(C(C)(C)C)=NN2c2ccc(C(=O)O)cc2)cc1 (stereo not shown) [Compound 23, 4-(3-tert-Butyl-5-p-tolyl-4,5-dihydro-1H-pyrazol-1-yl)benzoic acid] | > 100 µM | > 100 µM | > 50 µM | > 50 µM | 8.4 µM | – | – | –
23 | CC(C)(C)C1=NN(c2ccc(C(=O)O)cc2)C(c2ccc(Br)cc2)C1 (stereo not shown) [Compound 24, 4-(5-(4-Bromophenyl)-3-tert-butyl-4,5-dihydro-1H-pyrazol-1-yl)benzoic acid] | > 100 µM | > 100 µM | > 50 µM | > 50 µM | 7.7 µM | – | – | –
24 | CC(C)(C)C1=NN(c2ccc(S(=O)(=O)O)cc2)C(c2ccc(F)cc2)C1 (stereo not shown) [Compound 25, 4-(3-tert-Butyl-5-(4-fluorophenyl)-4,5-dihydro-1H-pyrazol-1-yl)benzenesulfonic acid] | > 100 µM | > 100 µM | > 50 µM | > 50 µM | 3.3 µM | – | – | –
25 | CC(C)(C)C1=NN(c2ccc(S(=O)(=O)O)cc2)C(c2ccc(Cl)cc2)C1 (stereo not shown) [Compound 26, 4-(3-tert-Butyl-5-(4-chlorophenyl)-4,5-dihydro-1H-pyrazol-1-yl)benzenesulfonic acid] | > 100 µM | > 100 µM | > 50 µM | > 50 µM | 7.2 µM | – | – | –
26 | COc1ccc(C2CC(c3ccc(F)cc3)=NN2c2ccc(C(=O)O)cc2)cc1 (stereo not shown) [Compound 27, 4-(3-(4-Fluorophenyl)-5-(4-methoxyphenyl)-4,5-dihydropyrazol-1-yl)benzoic acid] | > 100 µM | > 100 µM | > 50 µM | > 50 µM | 3.1 µM | – | – | –
